In brackets after ≈: the same amount, converted by molar mass. Where two headings read alike, the source gives them in different places.
Assays:
[1] = Grinding and wet granulation; type: physicochemical
Excerpt: Method: Granulate was obtained in solid-state forms. […] Dry the wet-cake under vacuum or at atmospheric pressure. Evaluate solid form and degree of crystallinity by e.g. XRPD and/or DSC.

[2] = Solubility in water and biorelevant buffers at 25° C.; type: physicochemical; details: 25° C., 24 h; for solubility at 24 h: thermodynamic from solid, read-out: Solubility (mg/mL) S
Protocol: Purchase sodium taurocholate (NaTC) from supplier. Account for assay. Add amount corresponding to 3 mM to PBS V1. Stir until dissolved. Equilibrate 1 h at 25° C. or 37° C. before use. Dispose after 48 h.
Purchase FaSSIF-V2 from supplier (biorelevant.com). Amount added to PBS-V1 according to Table 1. Stir until dissolved. Equilibrate 1 h at 25° C. or 37° C. before use. Dispose after 48 h.
Purchase FeSSIF-V2 from supplier (biorelevant.com). Amount added to PBS-V1 according to Table 1. Stir until dissolved. Equilibrate 1 h at 25° C. or 37° C. before use. Dispose after 48 h.

[3] = Stability of Forms A and B under stress conditions (temperature/humidity, capsules, light)
[4] = Intrinsic dissolution rate; type: physicochemical
[5] = Solubility in Simulated Fluids at 37° C.; type: physicochemical; details: for solubility at 30 min / solubility at 24 h: 37 °C, thermodynamic from solid; for solubility at 30 min: read-out: Solubility (mg/mL) 30 min; for solubility at 24 h: read-out: Solubility (mg/mL) 24 h
Excerpt: Solubility data of Form A (S)-4-(2,2-difluoro-7-((5-methoxy-7-methyl-1H-indol-4-yl)methyl)-7-azaspiro[3.5]nonan-6-yl)benzoic acid, Form B (S)-4-(2,2-difluoro-7-((5-methoxy-7-methyl-1H-indol-4-yl)methyl)-7-azaspiro[3.5]nonan-6-yl)benzoic acid p-toluene sulfonic acid salt, Form C (S)-4-(2,2-difluoro-7-((5-methoxy-7-methyl-1H-indol-4-yl)methyl)-7-azaspiro[3.5]nonan-6-yl)benzoic acid p-toluene sulfonic acid salt, and Form D (S)-4-(2,2-difluoro-7-((5-methoxy-7-methyl-1H-indol-4-yl)methyl)-7-azaspiro[3.5]nonan-6-yl)benzoic acid hydrochloride salt in Simulated Fluids at 37° C.

[6] = Compression stability (XRPD after compression); type: physicochemical; details: 4 tons of compression for 5 min
Excerpt: Method: […] Afterwards, characterize the sample by XRPD to detect any change in the solid state.

[7] = Dynamic vapor sorption (DVS) mass change; type: physicochemical; details: for Mass change by DVS, Desorption (%) / Mass change by DVS, Sorption (%): Table 5, 25 degree C., based on dry weight
Excerpt: [table] The mass change by DVS isotherm (2 cycles 40-0-95-0-40% RH) are in the tables below. The mass change is based on the dry weight of each.

[8] = Water content by Karl Fischer titration; type: physicochemical; details: ambient conditions; relative to total weight of the salt / free form
[9] = pH 2.0, 0.01 M HCl, 37° C., 100 rpm, 120 min
[10] = pH 6.5, phosphate buffer 50 mM (PBS-V1), 37° C., 100 rpm, 120 min

In the case of COc1cc(C)c2[nH]ccc2c1CN1CCC2(C[C@H]1c1ccc(C(=O)O)cc1)CC(F)(F)C2 [Form A, (S)-4-(2,2-difluoro-7-((5-methoxy-7-methyl-1H-indol-4-yl)methyl)-7-azaspiro[3.5]nonan-6-yl)benzoic acid], the “crystallinity from XRPD pattern after grinding” value ([1]; after grinding) is reported as “crystallinity decrease”, the “form change after grinding and wet granulation” value ([1]; dry grinding (2 min and 5 min) and wet granulation (water and ethanol)) is reported as “did not lead to any form change” and the “pH of solubility sample (pH)” value ([2]; FaSSGF, pH 1.6) is reported as 1.68. For the same molecule, the “pH of solubility sample (pH)” value ([2]; PBS-V1 + 3 mM NaTC, pH 6.5) was 6.51, the “pH of solubility sample (pH)” value ([2]; PBS-V1 + 0.3 FeSSIF-V2, pH 6.5) was 6.52 and the “pH of solubility sample (pH)” value ([2]; PBS-V1 + 2.0 FeSSIF-V2, pH 6.5) was 6.73. For the same molecule, the “pH of solubility sample (pH)” value ([2]; PBS-V1 + FaSSIF-V2, pH 6.5) was 6.69, the “pH of solubility sample (pH)” value ([2]; PBS-V1 + FeSSIF-V2, pH 6.5) was 6.74 and the solubility at 24 h ([2]; fassgf or other biorelevant, FaSSGF, pH 1.6) was > 2 mg/mL. For the same molecule, the solubility at 24 h ([2]; fassgf or other biorelevant, PBS-V1 + 3 mM NaTC, pH 6.5) was 0.068 mg/mL, the solubility at 24 h ([2]; fassgf or other biorelevant, PBS-V1 + 0.3 FeSSIF-V2, pH 6.5) was 0.074 mg/mL and the solubility at 24 h ([2]; fassgf or other biorelevant, PBS-V1 + 2.0 FeSSIF-V2, pH 6.5) was 0.12 mg/mL. It also gave a solubility at 24 h ([2]; PBS-V1 + FaSSIF-V2, pH 6.5) of 0.072 mg/mL, a solubility at 24 h ([2]; PBS-V1 + FeSSIF-V2, pH 6.5) of 0.094 mg/mL and a solubility at 24 h ([2]; water) of 0.052 mg/mL (≈ 114 µM). The “pH of solubility sample (pH)” value ([2]; water) was 7.40, the “stability in HPMC and HGC capsules” value ([3]; 50° C. with 11% and 75% RH for 2 weeks) was “chemically and physically stable” and the “degradation under light stress” value ([3]; 1200 kLux light stress) was “about 0.9%”. For the same molecule, the “form change by XRPD after humidity exposure” value ([3]; exposed to 80% or 92% RH for 24 hrs) was “no change”, the “chemical stability in bulk state” value ([3]; stored at 50° C. with 11% RH or 75% RH for 1 week) was “chemically stable” and the “discoloration in bulk state” value ([3]; stored at 80° C. with 11% RH or 75% RH) was “slight to medium discoloration”. For the same molecule, the “polymorphic form in the stress conditions” value ([3]; temperature/humidity and light stress conditions) was “unchanged”, the intrinsic dissolution rate ([4]; PBS-V1 (pH 6.5)) was 0.0028 mg/min/cm^2 and the intrinsic dissolution rate ([4]; pH 2.0, 0.01 M HCl) was 0.081 mg/min/cm^2. The “form change after intrinsic dissolution” value [4, 9] was “(No form change)”, the intrinsic dissolution rate [4, 9] was 0.081 mg · min^−1 · cm^−2 and the “form change after intrinsic dissolution” value [4, 10] was “(No form change)”. The intrinsic dissolution rate [4, 10] was 0.0028 mg · min^−1 · cm^−2, the solubility at 30 min ([5]; fassgf or other biorelevant, FaSSGF, 30 min) was 2.28 mg/mL (≈ 5020 µM) and the solubility at 24 h ([5]; fassgf or other biorelevant, FaSSGF, 24 h) was > 2 mg/mL. It also gave a solubility at 30 min ([5]; fassif, FaSSIF, 30 min) of 0.24 mg/mL (≈ 528 µM), a solubility at 24 h ([5]; fassif, FaSSIF, 24 h) of 0.18 mg/mL (≈ 396 µM) and a solubility at 30 min ([5]; fessif, FeSSIF, 30 min) of 0.31 mg/mL (≈ 682 µM). It also gave a solubility at 24 h ([5]; fessif, FeSSIF, 24 h) of 0.31 mg/mL (≈ 682 µM), a solubility at 30 min ([5]; pH 7, water, Water, initial pH 7.00, 30 min) of 0.21 mg/mL (≈ 462 µM) and a solubility at 24 h ([5]; pH 7, water, Water, initial pH 7.00, 24 h) of 0.22 mg/mL (≈ 484 µM). For the same molecule, the “pH at 24 h” value ([5]; FaSSGF) was 1.61, the “pH at 24 h” value ([5]; FaSSIF) was 6.48 and the “pH at 24 h” value ([5]; FeSSIF) was 5.00. For the same molecule, the “pH at 24 h” value ([5]; Water, initial pH 7.00) was 7.12, the “form change in XRPD after compression” value [6] was “no form change” and the “moisture absorbed by DVS (absorbs up to)” value ([7]; 95% RH at 25° C.) was “up to 0.45%”. For the same molecule, the “Mass change by DVS, Desorption (%)” value ([7]; 0% RH) was −0.01%, the “Mass change by DVS, Sorption (%)” value ([7]; 0% RH) was 0.00% and the “Mass change by DVS, Desorption (%)” value ([7]; 10% RH) was 0.06%. The “Mass change by DVS, Sorption (%)” value ([7]; 10% RH) was 0.04%, the “Mass change by DVS, Desorption (%)” value ([7]; 20% RH) was 0.12% and the “Mass change by DVS, Sorption (%)” value ([7]; 20% RH) was 0.08%. For the same molecule, the “Mass change by DVS, Desorption (%)” value ([7]; 30% RH) was 0.17%, the “Mass change by DVS, Sorption (%)” value ([7]; 30% RH) was 0.13% and the “Mass change by DVS, Desorption (%)” value ([7]; 40% RH) was 0.22%. For the same molecule, the “Mass change by DVS, Sorption (%)” value ([7]; 40% RH) was 0.17%, the “Mass change by DVS, Desorption (%)” value ([7]; 50% RH) was 0.26% and the “Mass change by DVS, Sorption (%)” value ([7]; 50% RH) was 0.22%. The “Mass change by DVS, Desorption (%)” value ([7]; 60% RH) was 0.32%, the “Mass change by DVS, Sorption (%)” value ([7]; 60% RH) was 0.26% and the “Mass change by DVS, Desorption (%)” value ([7]; 70% RH) was 0.35%. For the same molecule, the “Mass change by DVS, Sorption (%)” value ([7]; 70% RH) was 0.30%, the “Mass change by DVS, Desorption (%)” value ([7]; 80% RH) was 0.38% and the “Mass change by DVS, Sorption (%)” value ([7]; 80% RH) was 0.35%. For the same molecule, the “Mass change by DVS, Desorption (%)” value ([7]; 90% RH) was 0.42%, the “Mass change by DVS, Sorption (%)” value ([7]; 90% RH) was 0.40% and the “Mass change by DVS, Desorption (%)” value ([7]; 95% RH) was 0.45%. The “Mass change by DVS, Sorption (%)” value ([7]; 95% RH) was 0.45% and the “water content by Karl Fischer titration” value [8] was 0.15 % w/w.

Source: US20260159497A1, “SOLID FORMS OF A COMPLEMENT FACTOR B INHIBITOR” (Novartis Pharma AG, priority 2022, published 2026)
